The source of these data is US20200069648A1, “HALOALLYLAMINE PYRAZOLE DERIVATIVE INHIBITORS OF LYSYL OXIDASES AND USES THEREOF” (Pharmaxis Ltd., priority 2017, published 2020).

Structures can show the parent of a compound that is named as a salt.

Test [1] deals with metastatic oral cancer cell line expressing DsRed. The test can be described thus: Oral metastatic cancer mouse model. Format: in vivo. Particulars: mice, 0.1-100 mg/Kg, up to five weeks; compared with vehicle-treated group. The procedure: An analysis of the use of LOXL2 inhibitors to treat cancer diseases is performed through the use of an oral metastatic cancer mouse model.
Mice are injected with a metastatic oral cancer cell line expressing DsRed for tracking. Mice are monitored weekly by in vivo imaging (IVIS) based on DsRed expression and by caliper measurements of mouse tongues over a period of up to five weeks. Compound 15 is given 0.1-100 mg/Kg throughout the period of the experimental procedure or only two times a week throughout the entire study.

Test [2] has as its system CCl4 induced liver fibrosis. The test is described as follows: CCl4 induced liver fibrosis model. Format: in vivo. The conditions noted are these: mice, CCl4 i.p. twice per week for 6 weeks; 0.1-100 mg/Kg; compared with vehicle-treated group. On the procedure: An analysis of the use of LOXL2 inhibitors to treat inflammatory/fibrotic diseases is performed through the use of a CCl4 induced liver fibrosis model. Liver injury is frequently followed by complete parenchymal regeneration due to regenerative potency of hepatocytes. Continuous liver injury due to the administration of CCl4 leads to extracellular matrix accumulation, accompanied by recurrent hepatocyte necrosis, inflammation, and regenerative processes, causing liver fibrosis and consequently liver cirrhosis (see Natsume, M., et al., Attenuated liver fibrosis and depressed serum albumin levels in carbon tetrachloride-treated IL-6-deficient mice. J. Leukoc. Biol., 1999, 66, 601-608 also See Yao, Q, Y., et al. Inhibition by curcumin of multiple sites of the transforming growth factor-beta1 signalling pathway ameliorates the progression of liver fibrosis induced by carbon tetrachloride in rats. BMC Complement Altern Med. 2012 Sep. 16; 12(1):156.).
Mice are injected intraperitoneally with CCl4 (i.p.) 1 ml/kg 25% CCl4 in olive oil, twice per week for a total period of 6 weeks. Compound 15 is given 0.1-100 mg/Kg throughout the period of the experimental procedure or only 3 weeks after CCl4 administration and then throughout the entire study.

Regarding `Cc1nn(C/C(F)=C/CN)c(C)c1Cc1ccc(S(=O)(=O)N(C)C)c(Cl)c1` [Compound 15, (Z)-4-((1-(4-amino-2-fluorobut-2-en-1-yl)-3,5-dimethyl-1H-pyrazol-4-yl)methyl)-2-chloro-N,N-dimethylbenzenesulfonamide hydrochloride], in test [1], the spread of metastasis entry is on record as “significant reduction” and the “tongue cancer volume (tongue volume)” value is reported as “significant reduction”. The “reduction in liver fibrosis by liver sirius red staining with quantification” value in test [2] is on record as “up to 50%”.
